MIC90 data for two molecules are collected here from ChEMBL document CHEMBL1152103, “U-87947E, a protein quinolone antibacterial agent incorporating a bicyclo[1.1.1]pent-1-yl (BCP) subunit” (1993).

Common to all, as to type: functional
In test [1] the test system is Haemophilus influenzae. Briefly: The compound was tested for its antibacterial activity against Haemophilus influenzae (10 strains).
In test [2] the test system is Enterococcus faecalis. Briefly: The compound was tested for its antibacterial activity against Enterococcus faecalis (10 strains).
For test [3], the system named is Bacteroides fragilis. In words: The compound was tested for its antibacterial activity against Bacteroides fragilis (12 strains).
Test [4] concerns Streptococcus pyogenes. Briefly: The compound was tested for its antibacterial activity against Streptococcus pyogenes (10 strains).
In test [5] the test system is Staphylococcus aureus. In words: The compound was tested for its antibacterial activity against Staphylococcus aureus, ciprofloxacin resistant (14 strains).
In test [6] the test system is Pseudomonas aeruginosa. Briefly: The compound was tested for its antibacterial activity against Pseudomonas aeruginosa (20 strains).
The subject of test [7] is Escherichia coli. Briefly: The compound was tested for its antibacterial activity against Escherichia coli (21 strains).
For test [8], the system named is Staphylococcus aureus. In words: The compound was tested for its antibacterial activity against Staphylococcus aureus (12 strains).
Test [9] relates to Streptococcus pneumoniae. In words: The compound was tested for its antibacterial activity against Streptococcus pneumoniae (10 strains), expressed as MIC90.

Values after ≈ are worked out from the molar mass of the structure shown. Where only a bound is given, the exact number is not on record here.

As to `CS(=O)(=O)O.C[C@H]1CN(c2c(F)cc3c(=O)c(C(=O)O)cn(C45CC(C4)C5)c3c2F)C[C@H]1CN`, the MIC90 turned out to be 0.06 µg/mL in [1]; 0.25 µg/mL in test [2]; 1 µg/mL in test [3]; 0.125 µg/mL in test [4]; 0.5 µg/mL in test [5]; 8 µg/mL in test [6]. Also, the MIC90 in test [7], in test [8] and in test [9] was 0.125 µg/mL each time.

Turning to `O=C(O)c1cn(C2CC2)c2cc(N3CCNCC3)c(F)cc2c1=O` [CIPROFLOXACIN], the MIC90 is 0.015 µg/mL (≈ 0.0453 µM) in test [1]; 2 µg/mL (≈ 6.04 µM) in test [2]; 8 µg/mL (≈ 24.1 µM) in test [3]; 0.5 µg/mL (≈ 1.51 µM) in test [4]; more than 16 µg/mL in [5]; 2 µg/mL (≈ 6.04 µM) in test [6]. The results for the MIC90 in [7], in test [8] and in [9] were 0.03 µg/mL (≈ 0.0905 µM), 1 µg/mL (≈ 3.02 µM) and 1 µg/mL (≈ 3.02 µM), respectively.
